Results as given in patent publication US8784887B2, “Pharmaceutical preparation of N-[5-(aminosulfonyl)-4-methyl-1,3-thiazol-2-yl]-N-methyl-2-[4-(2-pyridinyl)phenyl]acetamide” (Aicuris GmbH & Co. KG, priority 2005, dated 2014).

Assay: release experiments with pure active compound (I) and with state-of-the-art preparations
Assay type: physicochemical
Conditions: release experiments using pure active compound (I)
Text: If those preparations known from the state of the art are applied to the active compound (I) described here, it has unexpectedly been shown that there is no immediate release of the active compound but that there is a markedly delayed release which is therapeutically not desired.

SMILES: Cc1nc(N(C)C(=O)Cc2ccc(-c3ccccn3)cc2)sc1S(N)(=O)=O [active compound (I), N-[5-(Aminosulfonyl)-4-methyl-1,3-thiazol-2-yl]-N-methyl-2-[4-(2-pyridinyl)phenyl]acetamide]
- release behavior of pure active compound (in words): “clumping” or a gel formation
